Publication PMC7830545, “Rational Design of CYP3A4 Inhibitors: A One-Atom Linker Elongation in Ritonavir-Like Compounds Leads to a Marked Improvement in the Binding Strength” (International Journal of Molecular Sciences, 2021)

Tests used:
[1] = molecular target: T1, K421A/K424A CYP3A4 (Homo sapiens, UniProt P08684, K421A/K424A); experiment: Spectral binding titrations with the K421A/K424A mutant; conditions: read-out: Ks (dissociation constant)
T1 construct: made in house

[2] = molecular target: T2, CYP3A4 (Homo sapiens, UniProt P08684); experiment: Inhibitory potency for BFC O-debenzylation activity in a soluble reconstituted system; assay type: biochemical; set-up: The full-length CYP3A4 and rat cytochrome P450 reductase (40 and 60 μM, respectively) were preincubated; made in house; conditions: BFC debenzylase activity, 0.1 μM CYP3A4 with cytochrome P450 reductase, no NADPH preincubation
T2 sequence (P08684 whole entry): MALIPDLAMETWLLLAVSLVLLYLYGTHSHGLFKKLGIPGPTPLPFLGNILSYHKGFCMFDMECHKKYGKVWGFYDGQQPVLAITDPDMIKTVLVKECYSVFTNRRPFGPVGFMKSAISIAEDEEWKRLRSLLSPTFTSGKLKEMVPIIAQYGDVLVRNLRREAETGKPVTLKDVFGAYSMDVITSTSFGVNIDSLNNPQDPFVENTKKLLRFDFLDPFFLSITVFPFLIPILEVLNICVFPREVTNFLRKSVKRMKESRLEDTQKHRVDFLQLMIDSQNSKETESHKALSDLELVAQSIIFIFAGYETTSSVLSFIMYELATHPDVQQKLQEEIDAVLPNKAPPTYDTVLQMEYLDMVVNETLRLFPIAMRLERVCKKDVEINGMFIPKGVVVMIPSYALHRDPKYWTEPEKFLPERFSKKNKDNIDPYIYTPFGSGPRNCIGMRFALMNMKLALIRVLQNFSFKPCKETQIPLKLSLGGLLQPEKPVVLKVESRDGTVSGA

[3] = molecular target: T2, CYP3A4; experiment: Thermal denaturation (melting temperature of ligand-bound CYP3A4); assay type: binding; set-up: Codon-optimized full-length and Δ3–22 human CYP3A4 were produced as reported previously [45] and used for assays and crystallization, respectively; made in house; conditions: 1 μM protein, 20 μM ligand; for ΔTm at 15 min, 20 μM: human, purified CYP3A4 protein, pH 7.4, ligand-dependent change in melting temperature; for ΔTm: ligand-dependent change in melting temperature
Procedure: Thermal Denaturation—Thermal denaturation curves were recorded in 0.1 M phosphate buffer, pH 7.4, in a Cary 300 spectrophotometer. Protein (1 μM) was mixed with a ligand (20 μM) and incubated for 15 min at 23 °C. Melting curves were recorded at 260 nm using a 0.2 °C measurement step, 0.9 °C/min ramp rate, and a 50–75 °C temperature range. A denaturation midpoint (melting temperature; Tm) was determined from non-linear fittings to the melting curve as described earlier.

[4] = molecular target: T2, CYP3A4; experiment: Stopped-flow kinetics of ligand binding; set-up: Codon-optimized full-length and Δ3–22 human CYP3A4 were produced as reported previously [45] and used for assays and crystallization, respectively; made in house; conditions: for k fast: rate constant for the fast phase of the ligand binding reaction; for percentage of the fast phase: value in brackets of k fast column
Procedure: (§1) Kinetics of Ligand Binding and Heme Reduction—Kinetics of ligand binding to CYP3A4 and its reduction with sodium dithionite were measured at 426 and 443 nm, respectively, in a SX.18MV stopped flow apparatus (Applied Photophysics, UK), as described earlier.

[5] = molecular target: T2, CYP3A4; experiment: Kinetics of heme reduction of inhibitor-bound CYP3A4 with sodium dithionite; set-up: Codon-optimized full-length and Δ3–22 human CYP3A4 were produced as reported previously [45] and used for assays and crystallization, respectively; made in house; conditions: for portion of the protein reduced: k ET, heme reduction by sodium dithionite; for k ET: rate constant for reduction of inhibitor-bound CYP3A4 with sodium dithionite
Source text: Ritonavir-like molecules inhibit CYP3A4 not only via heme ligation and decrease in the heme redox potential but also by blocking the active site and preventing substrates from accessing the catalytic centre. We usually evaluate the heme accessibility by measuring the rate and percentage of anaerobic heme reduction by sodium dithionite, an artificial electron donor (k^ET in Table 1). […] Therefore, we utilized another method, heme bleaching with hydrogen peroxide, to probe the accessibility of the cofactor. H2O2 is a small oxidizing agent that easily penetrates the protein interior and destroys the heme without altering the P450 structure. Due to the complex, multiphasic nature of heme decay kinetics, it was more convenient to compare the percentage of heme destroyed at the end of the reaction.
as §1

[6] = molecular target: T2, CYP3A4; experiment: H2O2-dependent heme depletion assay; set-up: Codon-optimized full-length and Δ3–22 human CYP3A4 were produced as reported previously [45] and used for assays and crystallization, respectively; made in house; conditions: for % decay (heme destroyed at the end of the reaction): 1.6 μM CYP3A4, 16 μM inhibitor, 10 mM H2O2, 120 min, relative to ligand-free CYP3A4 (100% decay); for higher heme loss: weaker ligands compared with the strongest binders/inhibitors; for heme preserved: 10 mM H2O2, end of the reaction
[7] = molecular target: T2, CYP3A4; experiment: Spectral binding titrations (equilibrium ligand binding, type II spectral change); set-up: Codon-optimized full-length and Δ3–22 human CYP3A4 were produced as reported previously [45] and used for assays and crystallization, respectively; made in house; conditions: for Kd: WT CYP3A4, 2 μM protein, pH 7.4, quadratic fits to titration plots, read-out: Ks (spectral dissociation constant); for λmax (nm) Ferric: ferric inhibitor-bound CYP3A4, Soret band; for λmax (nm) ferrous: ferrous inhibitor-bound CYP3A4, Soret band; for ΔAmax: maximal absorbance change (peak/trough in difference spectrum) relative to that induced by ritonavir; for A421/417: ratio between the absorbance maxima of ferric ligand-bound and ligand-free CYP3A4

T1 sequence (P08684 with tags, fused parts or gaps K421A/K424A): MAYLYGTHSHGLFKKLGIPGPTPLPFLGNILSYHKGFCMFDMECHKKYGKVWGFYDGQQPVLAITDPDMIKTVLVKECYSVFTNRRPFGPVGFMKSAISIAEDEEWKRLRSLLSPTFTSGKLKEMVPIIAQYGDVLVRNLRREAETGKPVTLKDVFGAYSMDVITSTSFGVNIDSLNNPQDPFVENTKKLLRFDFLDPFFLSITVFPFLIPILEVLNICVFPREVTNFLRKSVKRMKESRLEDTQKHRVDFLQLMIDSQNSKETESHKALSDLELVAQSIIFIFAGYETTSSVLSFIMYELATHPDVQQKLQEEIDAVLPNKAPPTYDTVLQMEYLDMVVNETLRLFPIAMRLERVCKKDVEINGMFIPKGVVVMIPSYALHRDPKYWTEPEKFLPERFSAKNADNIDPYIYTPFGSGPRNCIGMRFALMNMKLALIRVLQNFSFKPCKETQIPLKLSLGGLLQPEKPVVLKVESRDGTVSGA

| SMILES | Kd [1] [nM] | IC50 [2] [nM] | ΔTm at 15 min, 20 μM [3] [°C] | k fast [4] [s⁻¹] | percentage of the fast phase [4] [%] | portion of the protein reduced [5] [%] | k ET [5] [s⁻¹] | % decay (heme destroyed at the end of the reaction) [6] [%] | Kd [7] [nM] | λmax (nm) Ferric [7] [nm] | λmax (nm) ferrous [7] [nm] | ΔAmax [7] [%] | A421/417 [7] | ΔTm [3] [°C] | higher heme loss [6] | heme preserved [6] [%] | fold decrease in Ks ([7]; relative to shorter pyridyl-ethyl counterpart 7b (series IV)) [fold] |
| --- | --- | --- | --- | --- | --- | --- | --- | --- | --- | --- | --- | --- | --- | --- | --- | --- | --- |
| CC(C)(C)OC(=O)N[C@@H](CS[C@H](Cc1ccccc1)C(=O)NCCCc1cccnc1)Cc1ccccc1 [Compound 3d] | 19 | 210 ± 20 | 5.6 | 12.0 | 38 | 95 | 0.013 | 22 |  |  |  |  |  |  |  |  |  |
| CC(C)(C)OC(=O)NC(CSCC(Nc1ccccc1)C(=O)NCc1cccnc1)Cc1cccc2ccccc12 (centres unmarked) [Compound 5b, reference compound] |  |  |  |  |  |  |  | 25 |  |  |  |  |  |  |  |  |  |
| CC(C)(C)OC(=O)NC(CSC(Cc1ccccc1)C(=O)NCCCc1cccnc1)Cc1cccc2ccccc12 (centres unmarked) [Compound 3g] |  | 300 ± 60 |  | 10.8 | 32 | 75 | 0.011 | 22 | 24 ± 6 | 422 | 444 | 111 | 1.09 | 4.9 | 4–16% |  |  |
| CC(C)(C)OC(=O)N[C@@H](CS[C@H](Cc1ccccc1)C(=O)NCCCc1cccnc1)Cc1cccc2ccccc12 [Compound 3i] | 25 | 150 ± 20 | 5.5 | 12.3 | 24 | 97 | 0.021 | 23 | 18 ± 3 | 422 | 444 | 114 | 1.10 |  |  |  |  |
| CC(C)(C)OC(=O)NC(CSC(Cc1ccccc1)C(=O)NCCOCc1cccnc1)Cc1ccccc1 (centres unmarked) [Compound 6] |  | 730 ± 60 | < 3 | 9.5 | 29 | 65 | 0.017 | 34 | 213 ± 9 | 422 | 443 | 113 | 1.07 |  | 4–16% |  |  |
| CC(C)(C)OC(=O)NC(CSCC(Nc1ccccc1)C(=O)NCCCc1cccnc1)Cc1ccccc1 (centres unmarked) [Compound 8] |  | 330 ± 30 | 5 | 16.2 | 30 | 58 | 0.018 | 22 | 28 ± 4 | 422 | 444 | 114 | 1.10 |  |  |  |  |
| CC(C)(C)OC(=O)N[C@H](CS[C@@H](Cc1ccccc1)C(=O)NCCCc1cccnc1)Cc1ccccc1 [Compound 3c] |  | 310 ± 40 | 5.8 |  |  | 77 | 0.012 |  |  |  |  |  |  |  |  |  |  |
| CC(C)(C)OC(=O)NC(CSC(Cc1ccccc1)C(=O)NCCCc1cccnc1)Cc1cccc2ccccc12 (centres unmarked) [Compound 3f] |  | 160 ± 30 | 7.9 |  |  | 94 | 0.011 | 15 |  |  |  |  |  |  |  | > 80 |  |
| CC(C)(C)OC(=O)NC(CSC(Cc1ccccc1)C(=O)NCCCc1cccnc1)Cc1ccccc1 (centres unmarked) [Compound 3a] |  | 160 ± 20 | 8.1 | 12.5 | 36 |  |  | 18 |  |  |  |  |  |  |  | > 80 |  |
| CC(C)(C)OC(=O)NC(CSC(Cc1ccccc1)C(=O)NCCCc1cccnc1)Cc1ccccc1 (centres unmarked) [Compound 3b] |  | 300 ± 20 |  |  |  | 87 | 0.014 | 26 | 29 ± 4 | 421 | 443 | 111 | 1.08 | 5.3 | 4–16% |  |  |
| CC(C)(C)OC(=O)N[C@H](CS[C@H](Cc1ccccc1)C(=O)NCCCc1cccnc1)Cc1c[nH]c2ccccc12 [Compound 3e] |  | 150 ± 30 | 7.8 | 20.1 | 24 | 85 | 0.020 | 18 | 19 ± 2 | 422 | 444 | 125 | 1.11 |  |  | > 80 | 4 |
| CC(C)(C)OC(=O)N[C@H](CS[C@@H](Cc1ccccc1)C(=O)NCCCc1cccnc1)Cc1cccc2ccccc12 [Compound 3h] |  | 90 ± 10 |  | 16.1 | 24 | 72 | 0.017 | 12 | 7 ± 1 | 422 | 444 | 112 | 1.09 |  |  | > 80 |  |
